Laboratory results taken from patent publication US10837044B2, “Automated method for analyzing and interpreting an antimicrobial susceptibility” (FONDATION MEDITERRANEE INFECTION, priority 2014, dated 2020).

Tests used:
Test in all cases: antibiogram by diffusion on Mueller-Hinton agar with antibiotic wafers
Assay type in all cases: cell-based
Staphylococcus aureus = settings: for resistance (I, R) or sensitivity (S): Table C1, six wafers, disk loads of Table B; for resistant (I/R) or sensitive (S): Table C2, sixteen wafers, square dish
Method: (§1) The inoculum was prepared by making a suspension of bacteria directly from colonies put into solution in tubes of sterile water so that the solution presented accurate opacity as determined with a spectrophotometer equivalent to the opacity of a 0.5 standard in the McFarland range. This bacterial suspension concentration is standardized since a more concentrated inoculum would lead to smaller diameters for the inhibition zone, and vice versa.
(§2) The inoculum corresponds to concentrations of about 10^8 CFU/mL for Escherichia coli, Klebsiella pneumoniae, Proteus mirabilis, Klebsiella oxytoca, Enterobacter cloacea, Enterobacter aerogenes, Entercoccus faecalis, Pseudomonas aeruginosa, Staphylococcus aureus, and Staphylococcus epidermidis. These are the ten species bacteria that are encountered the most frequently in human pathologies.
(§3) 1.2) The bacterial sample was deposited on a solid culture medium in a petri dish having a diameter of 90 mm or in a square dish having a side of 120 mm, the medium being constituted by a Mueller-Hinton agar specific for (EUCAST) antibiograms. Ideally, it should be used in the 15 minutes (min) following preparation of the suspension.
(§4) Seeding was done by the method of diffusion on an agar medium by flooding in which excess bacterial suspension was added to the Mueller-Hinton agar. After homogenizing, excess liquid was discarded in order to avoid over-inoculating the dishes. It is necessary to wait beforehand for the surface of the agar to be dry in order to eliminate any trace of moisture encouraging bacterial invasion.
(§5) The disks of the antibiotic wafers were deposited within 15 min after inoculating the agar. The antibiotic impregnated disks were deposited using an automatic dispenser that placed the disks firmly on the surface of the inoculated and dried agar. The number of disks deposited per dish was limited because of inhibition zone overlap and in order to limit interference between antibiotics. It is important for the inhibition diameters to be measurable. The antibiograms were then incubated at 37° C. for 18 hours (h) to 24 h.
(§6) The antibiotic wafers were made of high quality absorbent paper with a diameter of 6 mm and they were impregnated with antibiotics at concentrations in the range 1 micrograms (μg) to 300 μg approximately, depending on the antibiotic.
(§7) In the examples below, reference disks were used as sold by the suppliers i2a (Montpellier, France), BD (Becton Dickinson, USA), Bio-Rad (Hercules, USA), Biomerieux (Marcy l′Etoile, France) containing the following antibiotics and carrying the following codes and the following doses: AMX (amoxicillin) 25 μg: AMC (amoxicillin-clavulanic acid) 20 μg-10 μg; GM for gentamicin, 15 μg; SXT (trimethoprim-sulfamethoxazole) 1.25/23.75 μg; TIC (ticarcillin) 75 μg; TCC (ticarcillin-clavulanic acid) […]; TZP (piperacillin-tazobactam) 75/10 μg; CAZ (ceftazidime) 30 μg; IMP or IPM (imipeneme) 10 μg; COL (colistin) 50 μg; FOX (cefoxitine) 30 μg; VAN (vancomycin) 30 μg; TEC (teicoplanin) 30 μg; CLI or DA (clindamycin) 2 μg; CRO (ceftriaxone) 30 μg; CIP (ciprofloxacin) 5 μg; OFX (ofloxacin) 5 μg; CTX (cefotaxime) 5 μg; AN or AK (amikacin) 30 μg; TM (tobramycin) 10 μg; FOX (cefoxitine) 30 μg; ATM (aztreonam) 30 μg; ERT (ertapenem) 10 μg; FF (fosfomycin) 200 μg; DO (doxycycline) 30 μg; K (kanamycin) 1000 μg; L (lincomycin) 15 μs; LNZ (linezolid) 10 μg; AN (nalidixic acid) 30 μg; NOR (norfloxacin) 10 μg; PT (pristinamycin) 15 μg; RA (rifampicin) 5 μg; and E (erythromycin) 15 μg.

Escherichia coli = settings: Table C2, square dish
Method: as §1, §2, §3, §4, §5, §6, §7

[1] = tested on: Staphylococcus epidermidis; settings: Table C1, six wafers, disk loads of Table B
Method: as §1, §2, §3, §4, §5, §6, §7

Klebsiella pneumoniae = settings: for resistant (I/R) or sensitive (S): Table C2, sixteen wafers, square dish; for resistance (I, R) or sensitivity (S): Table C1, six wafers, disk loads of Table B
Method: as §1, §2, §3, §4, §5, §6, §7

Entercoccus faecalis = settings: Table C1, six wafers, disk loads of Table B
Method: as §1, §2, §3, §4, §5, §6, §7

Enterobacter aerogenes = settings: Table C1, six wafers, disk loads of Table B
Method: as §1, §2, §3, §4, §5, §6, §7

Klebsiella oxytoca = settings: Table C1; K. oxytoca phenotype Wild; six wafers, disk loads of Table B
Method: as §1, §2, §3, §4, §5, §6, §7

Enterobacter cloacea = settings: Table C1, six wafers, disk loads of Table B
Method: as §1, §2, §3, §4, §5, §6, §7

Pseudomonas aeruginosa = settings: Table C1, six wafers, disk loads of Table B
Method: as §1, §2, §3, §4, §5, §6, §7

[2] = S. aureus phenotype Methicillin resistant
[3] = S. aureus phenotype R to methicilline, R to aminosides, fluoroquinolones, to rifampicie, to macrolides and the like
[4] = E. coli phenotype Cephalosporinase + R to fluoroquinolones + R to cotrimoxazole + partial R to aminosides, sixteen wafers
[5] = E. coli phenotype Hl penicillinase + R to fluoroquinolones + R to cotrimoxazole + partial R to aminosides, sixteen wafers
[6] = E. coli phenotype Wild, sixteen wafers in a rectangular grid
[7] = S. epidermidis phenotype Methicillin resistant
[8] = K. pneumoniae phenotype Cephalosporinase + R to aminosides + R to cotrimoxazole
[9] = K. pneumoniae phenotype Carbapenemase
[10] = K. pneumoniae phenotype Hl cephalosporinase
[11] = K. pneumoniae phenotype Hl penicillinase
[12] = K. pneumoniae phenotype Ll penicillinase

| Compound | resistance (I, R) or sensitivity (S) (Staphylococcus aureus; [2]) | resistance (I, R) or sensitivity (S) (Staphylococcus aureus; S. aureus phenotype Wild) | resistant (I/R) or sensitive (S) (Staphylococcus aureus; [3]) | resistant (I/R) or sensitive (S) (Staphylococcus aureus; S. aureus phenotype Wild) | resistant (I/R) or sensitive (S) (Escherichia coli; [4]) | resistant (I/R) or sensitive (S) (Escherichia coli; [5]) | resistant (I/R) or sensitive (S) (Escherichia coli; [6]) | resistance (I, R) or sensitivity (S) [1, 7] | resistance (I, R) or sensitivity (S) ([1]; S. epidermidis phenotype Wild) | resistant (I/R) or sensitive (S) (Klebsiella pneumoniae; [8]) | resistant (I/R) or sensitive (S) (Klebsiella pneumoniae; K. pneumoniae phenotype Wild) | resistance (I, R) or sensitivity (S) (Entercoccus faecalis; E. faecalis phenotype Atypical) | resistance (I, R) or sensitivity (S) (Entercoccus faecalis; E. faecalis phenotype Wild) | further results |
| --- | --- | --- | --- | --- | --- | --- | --- | --- | --- | --- | --- | --- | --- | --- |
| CO[C@@]1(NC(=O)Cc2cccs2)C(=O)N2C(C(=O)O)=C(COC(N)=O)CS[C@@H]21 [FOX, cefoxitine] | R | S | R | S | S | S | S | R | S | S | S |  |  |  |
| trimethoprim-sulfamethoxazole (cotrimoxazole) [SXT] | S | S | R | S | R | R | S | S | S | R | R |  |  |  |
| CN[C@H](CC(C)C)C(=O)N[C@H]1C(=O)N[C@@H](CC(N)=O)C(=O)N[C@H]2C(=O)N[C@H]3C(=O)N[C@H](C(=O)N[C@H](C(=O)O)c4cc(O)cc(O)c4-c4cc3ccc4O)[C@H](O)c3ccc(c(Cl)c3)Oc3cc2cc(c3O[C@@H]2O[C@H](CO)[C@@H](O)[C@H](O)[C@H]2O[C@H]2C[C@](C)(N)[C@H](O)[C@H](C)O2)Oc2ccc(cc2Cl)[C@H]1O [VAN, vancomycin] | S | S | S | S |  |  |  | S | S |  |  | S | S |  |
| teicoplanin [TEC] | S | S | S | S |  |  |  | S | S |  |  | S | S |  |
| gentamicin | S | S | R | S | R | R | S | S | S | R | R | S | S |  |
| colistin |  |  |  |  | S | S | S |  |  | S | S |  |  | resistance (I, R) or sensitivity (S) (Enterobacter aerogenes; E. aerogenes phenotype BSBL): S; resistance (I, R) or sensitivity (S) (Enterobacter aerogenes; E. aerogenes phenotype Wild): S; resistance (I, R) or sensitivity (S) (Klebsiella oxytoca): S; resistance (I, R) or sensitivity (S) (Klebsiella pneumoniae; K. pneumoniae phenotype BSBL): S; resistance (I, R) or sensitivity (S) (Klebsiella pneumoniae; [9]): S; resistance (I, R) or sensitivity (S) (Klebsiella pneumoniae; [10]): S; resistance (I, R) or sensitivity (S) (Klebsiella pneumoniae; [11]): S; resistance (I, R) or sensitivity (S) (Klebsiella pneumoniae; [12]): S; resistance (I, R) or sensitivity (S) (Klebsiella pneumoniae; K. pneumoniae phenotype Wild): S; resistance (I, R) or sensitivity (S) (Enterobacter cloacea; E. cloacae phenotype BSBL): S; resistance (I, R) or sensitivity (S) (Enterobacter cloacea; E. cloacae phenotype Wild): S |
| piperacillin-tazobactam [TZP] |  |  |  |  |  |  |  |  |  |  |  |  |  | resistance (I, R) or sensitivity (S) (Enterobacter aerogenes; E. aerogenes phenotype BSBL): R; resistance (I, R) or sensitivity (S) (Enterobacter aerogenes; E. aerogenes phenotype Wild): S; resistance (I, R) or sensitivity (S) (Klebsiella oxytoca): S; resistance (I, R) or sensitivity (S) (Klebsiella pneumoniae; K. pneumoniae phenotype BSBL): R/I; resistance (I, R) or sensitivity (S) (Klebsiella pneumoniae; [9]): R; resistance (I, R) or sensitivity (S) (Klebsiella pneumoniae; [10]): I/R; resistance (I, R) or sensitivity (S) (Klebsiella pneumoniae; [11]): S/I/R; resistance (I, R) or sensitivity (S) (Klebsiella pneumoniae; [12]): R; resistance (I, R) or sensitivity (S) (Klebsiella pneumoniae; K. pneumoniae phenotype Wild): S; resistance (I, R) or sensitivity (S) (Pseudomonas aeruginosa; P. aeruginosa Abnormal phenotype): R/S; resistance (I, R) or sensitivity (S) (Pseudomonas aeruginosa; P. aeruginosa phenotype BSBL): I/R; resistance (I, R) or sensitivity (S) (Pseudomonas aeruginosa; P. aeruginosa phenotype Carbapenemase): R; resistance (I, R) or sensitivity (S) (Pseudomonas aeruginosa; P. aeruginosa phenotype Penicillinase): I/S; resistance (I, R) or sensitivity (S) (Pseudomonas aeruginosa; P. aeruginosa phenotype Selective imipenem permeability): S; resistance (I, R) or sensitivity (S) (Pseudomonas aeruginosa; P. aeruginosa phenotype Wild): S; resistance (I, R) or sensitivity (S) (Enterobacter cloacea; E. cloacae phenotype BSBL): R; resistance (I, R) or sensitivity (S) (Enterobacter cloacea; E. cloacae phenotype Wild): S |
